For experiment [1], the target named is Tyrosine-protein kinase ABL2 (Homo sapiens) (UniProt P42684). Put plainly: Inhibition of human ABL2 at 18.6 nM by HotSpot assay relative to control.
The target of experiment [2] is Tyrosine-protein kinase Fer (Homo sapiens) (UniProt P16591). Put plainly: Inhibition of human FER at 18.6 nM by HotSpot assay relative to control.
Experiment [3] concerns the target Fibroblast growth factor receptor 3 (Homo sapiens) (UniProt P22607). The experiment can be described thus: Inhibition of human FGFR3 at 18.6 nM by HotSpot assay relative to control.
The target of experiment [4] is MAP kinase-activated protein kinase 3 (Homo sapiens) (UniProt Q16644). Put plainly: Inhibition of human MAPKAPK3 at 18.6 nM by HotSpot assay relative to control.
The target of experiment [5] is Protein kinase C theta type (Homo sapiens) (UniProt Q04759). Put plainly: Inhibition of human PKCtheta at 18.6 nM by HotSpot assay relative to control.
The target in experiment [6] is T1, Serine/threonine-protein kinase BRSK2 (Homo sapiens) (UniProt Q8IWQ3).
T1 sequence (whole entry): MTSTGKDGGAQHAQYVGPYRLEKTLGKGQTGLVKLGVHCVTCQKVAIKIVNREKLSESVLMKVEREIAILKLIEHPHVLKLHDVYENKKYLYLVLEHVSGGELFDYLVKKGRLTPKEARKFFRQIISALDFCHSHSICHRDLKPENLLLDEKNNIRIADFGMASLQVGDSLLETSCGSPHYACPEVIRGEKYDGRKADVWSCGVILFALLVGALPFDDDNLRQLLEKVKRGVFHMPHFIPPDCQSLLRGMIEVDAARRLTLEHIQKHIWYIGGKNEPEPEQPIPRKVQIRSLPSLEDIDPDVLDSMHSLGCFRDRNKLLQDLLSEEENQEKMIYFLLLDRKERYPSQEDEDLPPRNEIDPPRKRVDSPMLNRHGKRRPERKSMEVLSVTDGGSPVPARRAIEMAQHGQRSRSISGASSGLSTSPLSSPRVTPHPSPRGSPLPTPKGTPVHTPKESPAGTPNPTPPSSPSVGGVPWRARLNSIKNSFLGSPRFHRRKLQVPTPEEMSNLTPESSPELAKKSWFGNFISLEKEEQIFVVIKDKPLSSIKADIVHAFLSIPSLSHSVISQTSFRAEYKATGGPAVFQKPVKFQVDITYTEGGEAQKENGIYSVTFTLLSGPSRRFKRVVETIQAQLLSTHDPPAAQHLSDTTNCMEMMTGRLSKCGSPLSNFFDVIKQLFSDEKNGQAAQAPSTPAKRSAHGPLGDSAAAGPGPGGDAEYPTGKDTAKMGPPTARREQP
Put plainly: Inhibition of human BRSK2 at 1.82 nM by HotSpot assay relative to control.

The target of experiment [7] is Serine/threonine-protein kinase Chk2 (Homo sapiens) (UniProt O96017). Put plainly: Inhibition of human CHK2 at 1.82 nM by HotSpot assay relative to control.
The target in experiment [8] is Phosphorylase b kinase gamma catalytic chain, skeletal muscle/heart isoform (Homo sapiens) (UniProt Q16816). Put plainly: Inhibition of human PHKg1 at 1.82 nM by HotSpot assay relative to control.
For experiment [9], the target named is Protein kinase C eta type (Homo sapiens) (UniProt P24723). Put plainly: Inhibition of human PKCeta at 1.82 nM by HotSpot assay relative to control.
The target of experiment [10] is T2, Serine/threonine-protein kinase ULK2 (Homo sapiens) (UniProt Q8IYT8).
T2 sequence (whole entry): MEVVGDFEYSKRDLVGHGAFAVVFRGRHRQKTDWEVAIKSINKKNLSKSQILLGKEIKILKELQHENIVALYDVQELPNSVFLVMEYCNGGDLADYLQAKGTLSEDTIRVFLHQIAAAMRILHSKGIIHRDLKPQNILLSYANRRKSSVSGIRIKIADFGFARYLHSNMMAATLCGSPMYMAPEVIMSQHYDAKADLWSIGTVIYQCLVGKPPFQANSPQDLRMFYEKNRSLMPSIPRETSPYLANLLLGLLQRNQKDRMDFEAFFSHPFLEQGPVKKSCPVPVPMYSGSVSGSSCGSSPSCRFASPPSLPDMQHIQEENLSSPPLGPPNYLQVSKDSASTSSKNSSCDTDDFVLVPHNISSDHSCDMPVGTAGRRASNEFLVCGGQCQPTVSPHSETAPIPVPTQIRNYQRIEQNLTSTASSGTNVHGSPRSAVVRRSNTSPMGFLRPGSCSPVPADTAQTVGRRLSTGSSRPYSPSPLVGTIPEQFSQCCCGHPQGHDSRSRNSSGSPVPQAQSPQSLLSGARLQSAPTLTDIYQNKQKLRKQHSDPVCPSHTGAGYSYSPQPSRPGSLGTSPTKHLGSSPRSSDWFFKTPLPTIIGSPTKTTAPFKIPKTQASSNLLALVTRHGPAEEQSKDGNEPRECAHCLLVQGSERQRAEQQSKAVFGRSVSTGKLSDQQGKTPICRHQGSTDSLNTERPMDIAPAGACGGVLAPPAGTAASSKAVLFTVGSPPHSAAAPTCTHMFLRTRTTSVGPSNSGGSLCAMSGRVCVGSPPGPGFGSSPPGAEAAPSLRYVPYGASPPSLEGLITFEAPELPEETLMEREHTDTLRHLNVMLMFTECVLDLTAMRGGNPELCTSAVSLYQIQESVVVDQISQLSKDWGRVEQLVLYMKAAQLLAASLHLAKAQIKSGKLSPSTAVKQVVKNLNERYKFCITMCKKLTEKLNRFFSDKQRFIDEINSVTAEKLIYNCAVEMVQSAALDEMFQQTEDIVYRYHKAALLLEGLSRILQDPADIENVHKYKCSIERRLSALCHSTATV
Put plainly: Inhibition of human ULK2 at 1.82 nM by HotSpot assay relative to control.

Chain of Phosphorylase b kinase gamma catalytic chain, skeletal muscle/heart isoform (Homo sapiens) (Q16816 whole entry, looked up, canonical isoform): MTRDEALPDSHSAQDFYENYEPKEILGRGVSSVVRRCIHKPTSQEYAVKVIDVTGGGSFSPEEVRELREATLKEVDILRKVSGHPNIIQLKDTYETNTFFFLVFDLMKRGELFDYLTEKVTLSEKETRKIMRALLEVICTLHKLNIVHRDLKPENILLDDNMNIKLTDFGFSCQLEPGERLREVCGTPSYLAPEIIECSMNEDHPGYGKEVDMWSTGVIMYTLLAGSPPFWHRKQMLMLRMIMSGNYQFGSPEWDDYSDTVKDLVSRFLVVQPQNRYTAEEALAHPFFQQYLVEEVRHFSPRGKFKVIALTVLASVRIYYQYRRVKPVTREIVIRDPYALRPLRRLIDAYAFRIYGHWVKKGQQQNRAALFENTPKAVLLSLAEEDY
Chain of MAP kinase-activated protein kinase 3 (Homo sapiens) (Q16644 whole entry, looked up): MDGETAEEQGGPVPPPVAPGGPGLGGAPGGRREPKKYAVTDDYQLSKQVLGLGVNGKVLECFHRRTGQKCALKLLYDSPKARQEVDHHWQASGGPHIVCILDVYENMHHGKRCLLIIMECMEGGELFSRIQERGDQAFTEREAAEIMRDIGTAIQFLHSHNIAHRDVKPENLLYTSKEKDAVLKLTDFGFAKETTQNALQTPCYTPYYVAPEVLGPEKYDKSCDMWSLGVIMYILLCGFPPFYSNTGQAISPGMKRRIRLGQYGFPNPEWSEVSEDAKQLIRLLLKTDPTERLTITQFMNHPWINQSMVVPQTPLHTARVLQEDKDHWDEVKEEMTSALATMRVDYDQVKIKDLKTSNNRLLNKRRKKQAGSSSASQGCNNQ
Chain of Protein kinase C eta type (Homo sapiens) (P24723 whole entry): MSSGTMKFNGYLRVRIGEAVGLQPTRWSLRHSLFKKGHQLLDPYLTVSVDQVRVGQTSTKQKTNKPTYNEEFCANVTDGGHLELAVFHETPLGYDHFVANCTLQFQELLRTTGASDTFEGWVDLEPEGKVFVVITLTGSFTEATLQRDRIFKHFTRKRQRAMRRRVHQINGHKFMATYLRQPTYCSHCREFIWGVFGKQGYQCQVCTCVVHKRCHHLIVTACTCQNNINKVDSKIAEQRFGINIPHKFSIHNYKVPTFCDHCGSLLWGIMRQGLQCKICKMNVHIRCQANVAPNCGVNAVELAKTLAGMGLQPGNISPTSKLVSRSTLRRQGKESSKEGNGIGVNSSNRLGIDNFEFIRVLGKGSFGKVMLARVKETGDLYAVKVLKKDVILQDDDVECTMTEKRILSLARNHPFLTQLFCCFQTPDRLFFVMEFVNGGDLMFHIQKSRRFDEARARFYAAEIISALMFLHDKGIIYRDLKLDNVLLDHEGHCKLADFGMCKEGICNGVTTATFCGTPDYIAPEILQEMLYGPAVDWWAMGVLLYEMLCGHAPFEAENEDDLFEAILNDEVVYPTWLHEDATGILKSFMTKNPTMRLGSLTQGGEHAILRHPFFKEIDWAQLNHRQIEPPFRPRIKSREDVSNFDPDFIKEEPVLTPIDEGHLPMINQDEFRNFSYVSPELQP
Chain of Tyrosine-protein kinase Fer (Homo sapiens) (P16591 whole entry, looked up): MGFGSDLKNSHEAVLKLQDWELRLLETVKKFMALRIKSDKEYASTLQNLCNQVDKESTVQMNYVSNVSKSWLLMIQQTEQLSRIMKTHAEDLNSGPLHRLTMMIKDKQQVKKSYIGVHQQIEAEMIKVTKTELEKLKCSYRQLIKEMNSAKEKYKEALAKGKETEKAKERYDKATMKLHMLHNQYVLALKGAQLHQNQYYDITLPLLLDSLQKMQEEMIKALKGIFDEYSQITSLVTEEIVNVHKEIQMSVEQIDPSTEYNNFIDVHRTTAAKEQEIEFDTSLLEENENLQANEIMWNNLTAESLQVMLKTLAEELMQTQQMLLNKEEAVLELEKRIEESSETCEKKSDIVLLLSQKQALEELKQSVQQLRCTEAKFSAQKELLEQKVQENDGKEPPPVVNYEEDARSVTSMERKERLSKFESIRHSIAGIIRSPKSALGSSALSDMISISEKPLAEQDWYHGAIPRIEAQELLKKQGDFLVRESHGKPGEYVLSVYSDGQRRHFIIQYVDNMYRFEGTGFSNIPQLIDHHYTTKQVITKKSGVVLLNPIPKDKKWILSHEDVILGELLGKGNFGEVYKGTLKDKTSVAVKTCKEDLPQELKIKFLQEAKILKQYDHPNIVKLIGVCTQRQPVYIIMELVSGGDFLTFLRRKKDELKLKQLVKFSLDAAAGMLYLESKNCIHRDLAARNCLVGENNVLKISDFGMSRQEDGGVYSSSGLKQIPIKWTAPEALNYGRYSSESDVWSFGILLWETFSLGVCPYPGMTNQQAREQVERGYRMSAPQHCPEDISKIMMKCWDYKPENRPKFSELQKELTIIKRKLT
Chain of Protein kinase C theta type (Homo sapiens) (Q04759 whole entry, looked up): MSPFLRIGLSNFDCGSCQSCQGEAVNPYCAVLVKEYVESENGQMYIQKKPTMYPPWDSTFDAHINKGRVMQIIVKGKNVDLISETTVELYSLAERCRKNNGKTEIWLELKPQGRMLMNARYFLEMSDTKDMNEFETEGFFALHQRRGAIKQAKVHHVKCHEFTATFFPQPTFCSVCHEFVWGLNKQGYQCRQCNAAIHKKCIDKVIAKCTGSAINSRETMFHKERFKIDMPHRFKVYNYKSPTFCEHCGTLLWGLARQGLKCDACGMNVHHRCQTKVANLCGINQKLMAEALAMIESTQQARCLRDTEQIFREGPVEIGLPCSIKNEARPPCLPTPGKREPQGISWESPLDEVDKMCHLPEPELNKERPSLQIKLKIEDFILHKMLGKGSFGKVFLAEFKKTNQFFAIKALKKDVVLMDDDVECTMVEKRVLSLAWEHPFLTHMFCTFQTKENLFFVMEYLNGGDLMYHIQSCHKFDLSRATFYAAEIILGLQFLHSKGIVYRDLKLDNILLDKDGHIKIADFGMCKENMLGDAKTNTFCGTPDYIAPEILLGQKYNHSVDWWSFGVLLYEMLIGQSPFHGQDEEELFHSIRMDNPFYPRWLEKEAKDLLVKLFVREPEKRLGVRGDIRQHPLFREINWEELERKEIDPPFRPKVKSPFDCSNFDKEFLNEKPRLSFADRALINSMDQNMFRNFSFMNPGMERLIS
Chain of Serine/threonine-protein kinase Chk2 (Homo sapiens) (O96017 whole entry, canonical isoform): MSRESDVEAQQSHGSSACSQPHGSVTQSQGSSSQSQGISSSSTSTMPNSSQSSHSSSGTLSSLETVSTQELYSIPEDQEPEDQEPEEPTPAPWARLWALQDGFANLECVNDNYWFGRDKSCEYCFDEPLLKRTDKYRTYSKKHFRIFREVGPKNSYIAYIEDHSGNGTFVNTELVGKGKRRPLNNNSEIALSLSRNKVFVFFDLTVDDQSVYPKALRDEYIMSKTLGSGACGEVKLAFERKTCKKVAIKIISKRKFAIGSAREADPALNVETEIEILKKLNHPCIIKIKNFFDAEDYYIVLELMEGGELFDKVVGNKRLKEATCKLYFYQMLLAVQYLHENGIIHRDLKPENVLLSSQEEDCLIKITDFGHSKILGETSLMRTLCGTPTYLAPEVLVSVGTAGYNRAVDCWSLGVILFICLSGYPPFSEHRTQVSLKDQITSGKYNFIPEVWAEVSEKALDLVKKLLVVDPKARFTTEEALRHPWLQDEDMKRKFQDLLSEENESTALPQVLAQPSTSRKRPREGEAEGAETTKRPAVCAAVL
Chain of Tyrosine-protein kinase ABL2 (Homo sapiens) (P42684 whole entry): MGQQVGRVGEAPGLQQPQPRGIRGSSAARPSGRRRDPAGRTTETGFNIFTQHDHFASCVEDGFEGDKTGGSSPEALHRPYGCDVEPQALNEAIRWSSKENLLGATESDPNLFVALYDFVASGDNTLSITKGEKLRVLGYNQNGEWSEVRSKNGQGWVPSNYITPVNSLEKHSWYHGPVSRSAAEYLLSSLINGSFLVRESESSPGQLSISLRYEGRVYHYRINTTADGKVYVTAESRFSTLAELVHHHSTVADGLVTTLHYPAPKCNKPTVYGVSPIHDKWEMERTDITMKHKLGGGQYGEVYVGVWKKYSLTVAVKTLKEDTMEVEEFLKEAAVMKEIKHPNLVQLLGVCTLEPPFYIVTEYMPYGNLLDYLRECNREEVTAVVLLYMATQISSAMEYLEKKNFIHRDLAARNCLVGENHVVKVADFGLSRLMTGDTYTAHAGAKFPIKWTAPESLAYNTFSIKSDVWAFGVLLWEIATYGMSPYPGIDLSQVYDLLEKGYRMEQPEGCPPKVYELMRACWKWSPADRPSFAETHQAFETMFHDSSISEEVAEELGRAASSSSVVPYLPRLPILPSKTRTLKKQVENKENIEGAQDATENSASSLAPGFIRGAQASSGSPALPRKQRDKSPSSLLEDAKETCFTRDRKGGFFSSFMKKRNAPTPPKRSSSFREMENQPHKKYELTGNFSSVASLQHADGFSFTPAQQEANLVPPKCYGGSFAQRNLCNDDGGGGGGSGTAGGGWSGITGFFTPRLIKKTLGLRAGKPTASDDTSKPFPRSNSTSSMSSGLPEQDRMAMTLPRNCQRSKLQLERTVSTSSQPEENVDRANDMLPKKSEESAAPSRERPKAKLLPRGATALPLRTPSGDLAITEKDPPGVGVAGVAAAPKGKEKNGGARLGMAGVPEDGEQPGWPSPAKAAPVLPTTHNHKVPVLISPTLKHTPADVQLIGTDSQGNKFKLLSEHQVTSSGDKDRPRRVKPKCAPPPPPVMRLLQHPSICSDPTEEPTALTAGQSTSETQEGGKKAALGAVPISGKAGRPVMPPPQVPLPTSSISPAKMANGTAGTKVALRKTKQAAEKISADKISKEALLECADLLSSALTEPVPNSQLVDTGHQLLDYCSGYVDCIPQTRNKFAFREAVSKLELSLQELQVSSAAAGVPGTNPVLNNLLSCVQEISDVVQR

As usually defined, the inhibition is the change of the read-out against control, counted positive when it falls. `C[C@]1(O)C[C@@H](c2nc(-c3ccc4ccc(-c5ccccc5)nc4c3)c3c(N)nccn32)C1`: the inhibition was -0.1% in experiment [1]; -4.79% in experiment [2]; 8.2% in experiment [3]; 0.25% in experiment [4]; -9.99% in experiment [5].

Take `C[C@@]1(C(=O)Nc2ccc(F)nc2)CCCN1c1nc(Nc2cc(C3CC3)n[nH]2)c2cccn2n1`: the inhibition in [6] was -3.06%; in experiment [7] it was 0.29%; in experiment [8], 2.68%; in experiment [9], -0.87%; in [10] it was -7.91%.
